From a compilation of properties of binary mixtures (doi:10.1016/j.jct.2012.02.027)

Assay: xn = mol fraction of the nth substance listed
Details: 101 kPa

CC(=O)[O-].CC[n+]1ccn(C)c1 + O
viscosity [mPa·s]
Details | 298.15 K | 313.15 K | 328.15 K | 343.15 K
x2 = 0 | – | 57.7 | 30.3 | 18.1
x2 = 0.0992 | – | 49.5 | – | 16.46
x2 = 0.222 | 89.2 | 42.3 | 23.49 | –
x2 = 0.3233 | 73 | 36 | 20.48 | 13.21
x2 = 0.4207 | – | 30.2 | – | 11.11
x2 = 0.5408 | – | – | 13.85 | –
x2 = 0.6135 | – | 19.09 | 11.44 | 7.48
x2 = 0.6805 | 28.8 | 15.63 | – | –
x2 = 0.7482 | 21.9 | 11.99 | 7.32 | 4.87
x2 = 0.8134 | 15.44 | 8.51 | – | 3.57
x2 = 0.9067 | 6.16 | 3.74 | 2.54 | 1.81

O + CC(=O)[O-].CC[n+]1ccn(C)c1
x1 = 1
Details | viscosity [mPa·s]
328.15 K | 0.51
343.15 K | 0.41

CCO + CC(=O)[O-].CC[n+]1ccn(C)c1
x1 = 1
Details | viscosity [mPa·s]
298.15 K | 1.09
313.15 K | 0.83
328.15 K | 0.64
343.15 K | 0.5

CC[n+]1ccn(C)c1.N#C[N-]C#N + O
viscosity [mPa·s]
Details | 298.15 K | 313.15 K | 328.15 K | 343.15 K
x2 = 0 | – | 10.07 | 7.26 | –
x2 = 0.1299 | 12.78 | 8.71 | 6.33 | 4.84
x2 = 0.2248 | – | – | 5.65 | 4.34
x2 = 0.3042 | – | 7.04 | 5.11 | 3.94
x2 = 0.4308 | – | 5.8 | 4.3 | 3.33
x2 = 0.5429 | 6.96 | 4.81 | 3.58 | 2.78
x2 = 0.6534 | 5.41 | 3.81 | 2.84 | 2.23
x2 = 0.7355 | 4.41 | 3.11 | 2.32 | 1.8
x2 = 0.7944 | – | 2.56 | – | 1.48
x2 = 0.8803 | – | – | 1.31 | 1.04
x2 = 0.953 | 1.47 | – | 0.82 | 0.66

CC[n+]1ccn(C)c1.N#C[N-]C#N + CCO
viscosity [mPa·s]
Details | 298.15 K | 313.15 K | 328.15 K | 343.15 K
x2 = 0 | 14.9 | – | – | 5.48
x2 = 0.102 | 12.69 | 8.69 | 6.32 | 4.85
x2 = 0.1981 | 10.8 | 7.53 | 5.5 | –
x2 = 0.279 | 9.27 | 6.58 | 4.86 | 3.81
x2 = 0.3596 | 7.85 | – | – | 3.37
x2 = 0.4741 | 6.04 | 4.45 | 3.47 | 2.76
x2 = 0.6028 | – | 3.31 | 2.59 | 2.13
x2 = 0.6867 | 3.47 | 2.65 | 2.09 | 1.7
x2 = 0.7678 | – | 2.1 | 1.67 | 1.37
x2 = 0.8503 | 2.08 | 1.63 | 1.3 | 1.1
x2 = 0.9327 | 1.53 | 1.19 | 0.93 | 0.75

CCO + CC[n+]1ccn(C)c1.N#C[N-]C#N
x1 = 1
Details | viscosity [mPa·s]
298.15 K | 1.09
343.15 K | 0.5

O + CC[n+]1ccn(C)c1.N#C[N-]C#N
Details | viscosity [mPa·s]
298.15 K, x1 = 1 | 0.89

CC(=O)[O-].CC[n+]1ccn(C)c1 + CCO
viscosity [mPa·s]
Details | 298.15 K | 313.15 K | 328.15 K | 343.15 K
x2 = 0 | 132.9 | 57.7 | – | 18.1
x2 = 0.1059 | 92.3 | – | 24.1 | –
x2 = 0.1638 | 75 | 36.9 | 21.14 | 13.51
x2 = 0.2471 | 54.2 | – | 17.22 | 11.24
x2 = 0.3504 | 35.2 | 20.3 | 12.77 | –
x2 = 0.4165 | 26.5 | 16.06 | 10.47 | –
x2 = 0.4824 | 19.82 | 12.48 | 8.44 | 6.05
x2 = 0.5572 | 14.11 | – | 6.48 | 4.76
x2 = 0.6646 | 8.27 | 5.79 | 4.27 | 3.27
x2 = 0.7494 | 5.35 | – | 2.96 | 2.33
x2 = 0.8666 | – | 2.02 | 1.59 | 1.28
